Source: ChEMBL document CHEMBL5050840, “3-(1-oxoisoindolin-2-yl)piperidine-2,6-dione derivatives and uses thereof” (2021)
Calls of active or inactive are those of the source. No cut-off for these calls is given here.

Assays:
GripTite 293 MSR = test: Induction of IKZF2 degradation in human GripTite 293 MSR cells at 10 uM assessed as reduction in IKZF2 level measured by PathHunter assay relative to control; type: cell-based; design: scale not given: the % may be the effect or the level left
PBMC [1] = test: Effect of compound on human PBMCs at 10 uM assessed as fold increase in IL-2 producing cells; type: functional, cell-based
PBMC [2] = test: Effect of compound on human PBMCs at 10 uM assessed as decrease in CD4+ T cells proliferation; type: functional, cell-based
[3] = Induction of IKZF2 degradation in human GripTite 293 MSR cells assessed as reduction in IKZF2 level measured by PathHunter assay; type: cell-based

Row | SMILES | EC50 [3] | other results
1 | CN1CC=C(c2ccc3c(c2)CN(C2CCC(=O)NC2=O)C3=O)CC1 (stereo not given) |  | Activity (GripTite 293 MSR): 35%
2 | O=C1CCC(N2Cc3cc(C4CCN(Cc5ccccc5)CC4)ccc3C2=O)C(=O)N1 (stereo not given) |  | Activity (PBMC [1]): Active; Activity (PBMC [2]): Active
3 | CC(c1ccccc1)N1CCC(c2ccc3c(c2)CN(C2CCC(=O)NC2=O)C3=O)CC1 (racemic) | 0.007 µM | 
4 | O=C1CCC(N2Cc3cc(C4CCN([C@@H](CO)c5ccccc5)CC4)ccc3C2=O)C(=O)N1 (single isomer, unassigned) | 0.59 µM | 
5 | C[C@H](c1ccccc1)N1CCC(c2ccc3c(c2)CN(C2CCC(=O)NC2=O)C3=O)CC1 (single isomer, unassigned) | 0.017 µM | 
6 | CC(c1ccccc1)N1CCC(c2ccc3c(c2)CN(C2CCC(=O)NC2=O)C3=O)CC1 (single isomer, unassigned) | 0.009 µM | 
7 | O=C1CCC(N2Cc3cc(C4CCN(C(CO)c5ccccc5)CC4)ccc3C2=O)C(=O)N1 (single isomer, unassigned) | 0.85 µM | 
8 | O=C1CCC(N2Cc3cc(C4CCCN(Cc5ccccc5)CC4)ccc3C2=O)C(=O)N1 (single isomer, unassigned; form 1) | 0.17 µM | 
9 | O=C1CCC(N2Cc3cc(C4CCCN(Cc5ccccc5)CC4)ccc3C2=O)C(=O)N1 (single isomer, unassigned; form 2) | 0.21 µM | 
